Measurements taken from paper PMC6017705, “Discovery of N-(Naphtho[1,2-b]Furan-5-Yl) Benzenesulfonamides as Novel Selective Inhibitors of Triple-Negative Breast Cancer (TNBC)” (Molecules : A Journal of Synthetic Chemistry and Natural …, 2018).

How the values were obtained:
Type in all cases: cell-based, human
MCF-7 = assay: Cell viability assay (CCK-8), MCF-7; details: Homo sapiens; for inhibition at 5 µg/mL: MCF7
Method: (§1) Four human TNBC cell lines (MDA-MB-231, MDA-MB-453, SUM-159, and BT-20), a non-TNBC breast cancer cell line (MCF-7) and a normal mammary epithelial cell line (MCF-10A) were cultured with DMEM (phenol free) supplemented with 2.5% CS-FBS and 1% L-Glu. 1.2 × 10^3 of cells were seeded into 384-well microplates and maintained for 24 h in an incubator at 37 °C in a 5% CO2, saturated humidified atmosphere. […] […] Then CCK-8 solution was added into cells and incubated for another 4 h. Absorbance was measured with a Microplate Reader at 450/600 nm. The IC50 values of the compounds on TNBC cell lines were derived using GraphPad Prism 5.0 (GraphPad Software, Inc., La Jolla, CA, USA).

MDA-MB-231 = assay: Cell viability assay (CCK-8), MDA-MB-231; details: for inhibition at 5 µg/mL / IC50: Homo sapiens; for inhibition at 5 µg/mL: MDA-MB-231; for IC50: MDA-MB-231, 72 h, TNBC cell line, CCK-8, 72 h, 0.156 to 40 μM
Method: as §1

SUM-159 = assay: Cell viability assay (CCK-8), SUM-159; details: for inhibition at 5 µg/mL / IC50: Homo sapiens; for inhibition at 5 µg/mL: SUM159; for IC50: SUM159, 72 h, TNBC cell line, CCK-8, 72 h, 0.156 to 40 μM
Method: as §1

## Cc1oc2c(cc(NS(=O)(=O)c3ccc(Cl)cc3)c3ccccc32)c1C(=O)O [Compound 3-1]
MCF-7
  inhibition at 5 µg/mL: -12.2%
MDA-MB-231
  inhibition at 5 µg/mL: 31.4%
SUM-159
  inhibition at 5 µg/mL: -0.754%

## CCOC(=O)c1c(C)oc2c1cc(NS(=O)(=O)c1cc(C)c(C)cc1C)c1ccccc12 [Compound 3-2]
MCF-7
  inhibition at 5 µg/mL: 17.7%
MDA-MB-231
  inhibition at 5 µg/mL: 24.3%
SUM-159
  inhibition at 5 µg/mL: -0.884%

## COC(=O)c1c(C)oc2c1cc(NS(=O)(=O)c1ccc(C(C)C)cc1)c1ccccc12 [Compound 3-4]
MCF-7
  inhibition at 5 µg/mL: 14.2%
MDA-MB-231
  inhibition at 5 µg/mL: 37.8%
SUM-159
  inhibition at 5 µg/mL: -0.319%

## COC(=O)c1c(C)oc2c1cc(NS(=O)(=O)c1ccc(C)cc1C)c1ccccc12 [Compound 3-5]
MCF-7
  inhibition at 5 µg/mL: 22%
MDA-MB-231
  inhibition at 5 µg/mL: 41.1%
SUM-159
  inhibition at 5 µg/mL: 0.757%

## CCOC(=O)c1c(C)oc2c1cc(NS(=O)(=O)c1ccc3ccccc3c1)c1ccccc12 [Compound 3-6]
MCF-7
  inhibition at 5 µg/mL: 7.72%
MDA-MB-231
  inhibition at 5 µg/mL: 43.4%
SUM-159
  inhibition at 5 µg/mL: 0.292%

## COC(=O)c1c(C)oc2c1cc(NS(=O)(=O)c1ccc3ccccc3c1)c1ccccc12 [Compound 3-7]
MCF-7
  inhibition at 5 µg/mL: -4.73%
MDA-MB-231
  inhibition at 5 µg/mL: 0.431%
SUM-159
  inhibition at 5 µg/mL: 0.085%

## CCc1ccc(S(=O)(=O)Nc2cc3c(C(=O)O)c(C)oc3c3ccccc23)cc1 [Compound 3-8]
MCF-7
  inhibition at 5 µg/mL: -6.71%
MDA-MB-231
  inhibition at 5 µg/mL: -1.13%
SUM-159
  inhibition at 5 µg/mL: 0.221%

## COC(=O)c1c(C)oc2c1cc(NS(=O)(=O)c1ccc(F)cc1)c1ccccc12 [Compound 3-10]
MCF-7
  inhibition at 5 µg/mL: 34.5%
MDA-MB-231
  inhibition at 5 µg/mL: 64.5%
SUM-159
  inhibition at 5 µg/mL: 35.5%

## CCOC(=O)c1c(C)oc2c1cc(NS(=O)(=O)c1ccc(CC)cc1)c1ccccc12 [Compound 3-11]
MCF-7
  inhibition at 5 µg/mL: 13%
MDA-MB-231
  inhibition at 5 µg/mL: 41.1%
SUM-159
  inhibition at 5 µg/mL: 0.175%

## CCOC(=O)c1c(C)oc2c1cc(NS(=O)(=O)c1ccc(C(=O)O)cc1)c1ccccc12 [Compound 3-13]
MCF-7
  inhibition at 5 µg/mL: 5.14%
MDA-MB-231
  inhibition at 5 µg/mL: 19.6%
SUM-159
  inhibition at 5 µg/mL: -0.635%

## COC(=O)c1c(C)oc2c1cc(NS(=O)(=O)c1ccc(C)cc1)c1ccccc12 [Compound 3-14]
MCF-7
  inhibition at 5 µg/mL: 10.2%
MDA-MB-231
  inhibition at 5 µg/mL: 62.8%
SUM-159
  inhibition at 5 µg/mL: 48.2%

## COC(=O)c1c(C)oc2c1cc(NS(=O)(=O)c1cc(C)ccc1C)c1ccccc12 [Compound 3-15]
MCF-7
  inhibition at 5 µg/mL: 18.5%
MDA-MB-231
  inhibition at 5 µg/mL: 45.6%
SUM-159
  inhibition at 5 µg/mL: 0.037%

## CCOC(=O)c1c(C)oc2c1cc(NS(=O)(=O)c1ccc(C)cc1C)c1ccccc12 [Compound 3-16]
MCF-7
  inhibition at 5 µg/mL: 43.4%
MDA-MB-231
  inhibition at 5 µg/mL: 48.2%
SUM-159
  inhibition at 5 µg/mL: 0.732%

## COC(=O)c1c(C)oc2c1cc(NS(=O)(=O)c1ccc(F)cc1C)c1ccccc12 [Compound 3-18]
MCF-7
  inhibition at 5 µg/mL: 33.2%
MDA-MB-231
  inhibition at 5 µg/mL: 59.4%
  IC50: 5.2 µM
SUM-159
  inhibition at 5 µg/mL: 51.4%
  IC50: 24.2 µM

## Cc1cc(F)ccc1S(=O)(=O)Nc1cc2c(C(=O)O)c(C)oc2c2ccccc12 [Compound 3-19]
MCF-7
  inhibition at 5 µg/mL: 16.3%
MDA-MB-231
  inhibition at 5 µg/mL: 19.3%
SUM-159
  inhibition at 5 µg/mL: 0.38%

## CCc1ccc(S(=O)(=O)Nc2cc3c(C(=O)OC)c(C)oc3c3ccccc23)cc1 [Compound 3-20]
MCF-7
  inhibition at 5 µg/mL: 31.2%
MDA-MB-231
  inhibition at 5 µg/mL: 53.5%
  IC50: 10 µM
SUM-159
  inhibition at 5 µg/mL: 65.4%
  IC50: 17 µM

## CCOC(=O)c1c(-c2ccccc2)oc2c1cc(NS(=O)(=O)c1ccc(CC)cc1)c1ccccc12 [Compound 3-22]
MCF-7
  inhibition at 5 µg/mL: 2.24%
MDA-MB-231
  inhibition at 5 µg/mL: 53.6%
SUM-159
  inhibition at 5 µg/mL: -0.556%

## CCOc1ccc(S(=O)(=O)Nc2cc3c(C(=O)OCCOC)c(C)oc3c3ccccc23)cc1 [Compound 3-23]
MCF-7
  inhibition at 5 µg/mL: 14.7%
MDA-MB-231
  inhibition at 5 µg/mL: 62%
SUM-159
  inhibition at 5 µg/mL: 49.1%

## COC(=O)c1c(C)oc2c1cc(NS(=O)(=O)c1cc(C)c(C)cc1C)c1ccccc12 [Compound 3-24]
MCF-7
  inhibition at 5 µg/mL: 34.9%
MDA-MB-231
  inhibition at 5 µg/mL: 46.6%
SUM-159
  inhibition at 5 µg/mL: 0.233%

## CCCCCOC(=O)c1c(C)oc2c1cc(NS(=O)(=O)c1ccc(OC)cc1)c1ccccc12 [Compound 3-25]
MCF-7
  inhibition at 5 µg/mL: 48.3%
MDA-MB-231
  inhibition at 5 µg/mL: 39.5%
SUM-159
  inhibition at 5 µg/mL: 61.9%

## Cc1oc2c(cc(NS(=O)(=O)c3ccccc3)c3ccccc32)c1C(=O)OCc1ccccc1 [Compound 3-26]
MCF-7
  inhibition at 5 µg/mL: 25.6%
MDA-MB-231
  inhibition at 5 µg/mL: 51%
SUM-159
  inhibition at 5 µg/mL: 1.58%

## COC(=O)c1c(C)oc2c1cc(NS(=O)(=O)c1cccc3cccnc13)c1ccccc12 [Compound 3-27]
MCF-7
  inhibition at 5 µg/mL: 35.5%
MDA-MB-231
  inhibition at 5 µg/mL: 48.2%
SUM-159
  inhibition at 5 µg/mL: 10.2%

## CCCc1oc2c(cc(NS(=O)(=O)c3ccc(OC)cc3)c3ccccc32)c1C(=O)OCC [Compound 3-28]
MCF-7
  inhibition at 5 µg/mL: 33.4%
MDA-MB-231
  inhibition at 5 µg/mL: 61.9%
  IC50: > 40 µM
SUM-159
  inhibition at 5 µg/mL: 46%
  IC50: 14.4 µM

## COC(=O)c1c(C)oc2c1cc(NS(=O)(=O)c1ccc(Br)cc1)c1ccccc12 [Compound 3-29]
MCF-7
  inhibition at 5 µg/mL: 14.5%
MDA-MB-231
  inhibition at 5 µg/mL: 45%
SUM-159
  inhibition at 5 µg/mL: 1.32%

## COC(=O)c1c(C)oc2c1cc(NS(=O)(=O)c1ccccc1)c1ccccc12 [Compound 3-30]
MCF-7
  inhibition at 5 µg/mL: 29.3%
MDA-MB-231
  inhibition at 5 µg/mL: 50.9%
SUM-159
  inhibition at 5 µg/mL: 0.862%

## CCOC(=O)c1c(C)oc2c1cc(NS(=O)(=O)c1ccc(C(C)C)cc1)c1ccccc12 [Compound 3-31]
MCF-7
  inhibition at 5 µg/mL: 2.95%
MDA-MB-231
  inhibition at 5 µg/mL: 32.1%
SUM-159
  inhibition at 5 µg/mL: -1.33%

## Cc1oc2c(cc(NS(=O)(=O)c3ccc(C(C)C)cc3)c3ccccc32)c1C(=O)O [Compound 3-32]
MCF-7
  inhibition at 5 µg/mL: -7.57%
MDA-MB-231
  inhibition at 5 µg/mL: 24.7%
SUM-159
  inhibition at 5 µg/mL: -0.964%

## COC(=O)c1c(C)oc2c1cc(NS(=O)(=O)c1ccc(Cl)cc1)c1ccccc12 [Compound 3-33]
MCF-7
  inhibition at 5 µg/mL: 2.82%
MDA-MB-231
  inhibition at 5 µg/mL: 32.8%
SUM-159
  inhibition at 5 µg/mL: -0.507%

## COC(=O)c1c(C)oc2c1cc(NS(=O)(=O)c1ccc(C(=O)O)cc1)c1ccccc12 [Compound 3-34]
MCF-7
  inhibition at 5 µg/mL: 2.85%
MDA-MB-231
  inhibition at 5 µg/mL: 11%
SUM-159
  inhibition at 5 µg/mL: -0.042%

## CCOC(=O)c1c(C)oc2c1cc(NS(=O)(=O)c1c(C)cc(C)cc1C)c1ccccc12 [Compound 3-35]
MCF-7
  inhibition at 5 µg/mL: 24.5%
MDA-MB-231
  inhibition at 5 µg/mL: 33.9%
SUM-159
  inhibition at 5 µg/mL: 0.352%

## CCOC(=O)c1c(C)oc2c1cc(NS(=O)(=O)c1ccc(C)cc1)c1ccccc12 [Compound 3-36]
MCF-7
  inhibition at 5 µg/mL: -4.38%
MDA-MB-231
  inhibition at 5 µg/mL: 16.8%
SUM-159
  inhibition at 5 µg/mL: -0.123%

## COC(=O)c1c(C)oc2c1cc(NS(=O)(=O)c1c(C)cc(C)cc1C)c1ccccc12 [Compound 3-38]
MCF-7
  inhibition at 5 µg/mL: 14.8%
MDA-MB-231
  inhibition at 5 µg/mL: 50.6%
SUM-159
  inhibition at 5 µg/mL: 1.35%

## Cc1oc2c(cc(NS(=O)(=O)c3ccc(F)cc3)c3ccccc32)c1C(=O)OC(C)C [Compound 3-39]
MCF-7
  inhibition at 5 µg/mL: 4.95%
MDA-MB-231
  inhibition at 5 µg/mL: 42.3%
SUM-159
  inhibition at 5 µg/mL: -0.193%

## CCCc1oc2c(cc(NS(=O)(=O)c3ccc(C(=O)O)cc3)c3ccccc32)c1C(=O)OCC [Compound 3-40]
MCF-7
  inhibition at 5 µg/mL: 2.52%
MDA-MB-231
  inhibition at 5 µg/mL: 12.5%
SUM-159
  inhibition at 5 µg/mL: 0%

## Cc1sc(N)c2c(=O)oc3c4ccccc4ccc3c12 [Compound B09]
MCF-7; MCF7, 72 h, non-TNBC breast cancer cell line, CCK-8, 72 h
  IC50: 1450 nM
MDA-MB-231
  growth-inhibitory effect on MDA-MB-231 (in words): almost no growth-inhibitory effect
  IC50: ~20 µM
SUM-159
  growth-inhibitory effect on SUM-159 (in words): almost no growth-inhibitory effect
  IC50: > 40 µM
